Patent publication US11149014B2, “Method for treating pain or associated condition or symptom” (priority 2014, dated 2021)
Values joined by “and” are separate entries in the source; they are usually repeats but may differ in a detail not shown here. Equal values may be shown once. Where a name gives a salt, the structure may show the parent alone.

Assays:
Sabra mice [1] = assay: Zymosan-induced hind paw swelling (inflammation), caliper; type: in vivo
Female sabra mice = assay: Forced swimming test (FST) for depressive effect; type: in vivo; details: for moment/kicking per minute score, Mean: mean of last 4 min
Description: To find out whether HU436 has depressive effects on mice behavior—a forced swimming test (FST) was adopted.
Female sabra mice 6-8 weeks old were employed. Measurement of locomotor activity in mice movements were counted for 6 minutes.
Forced Swimming test (FST): The forced swimming test employed was essential similar to that described in ((Pettit-Demoulier et al, (2005) Psychopharmacology 177:245-255;)
Mice were dropped individually into a glass aquarium (height […], diameter 10 cm) containing 10 cm of water and their activity was monitored for 6 minutes. Of the total 6 minutes only the last 4 minutes was recorded—the first 2 minutes were considered as time for habitation.
The mice were treated either with 5 mg/kg or 10 mg/kg of HU436 (ip). Mice were scored at 10 minutes 90 minutes or 180 minutes after administration. In addition to mice treated with vehicle as control, 1 mice was injected ip with 5 mg/kg CBD and scored 10 minutes later. The movements/kicking of the mice were counted and the data are presented in the attached Table 1.

TNFα = TNFα levels in sera of zymosan-injected Sabra mice (Elisa); type: in vivo; details: 24 hrs after application
Description: (§1) Activity of HU-436 given orally were assayed in Sabra mice. Zymosan injected to mice left hind paw, induced inflammation, TNF (tumor necrosis factor) in the serum as well as pain. During 24 h, the inflammatory paw swelling response was assayed by caliper, whereas the pain in the hind paw, was determined by Von Frey monofiber instrument.
(§2) Sabra female, mice 6-7 weeks old, were employed. Zymosan 0.6 mgr in 40 micro-liters was injected into the left hind paw. Immediately thereafter 20 30, 50 or 100 mg/kg HU436 dissolved in olive oil, in 200 μl—was given orally. Two, six and twenty-four hours thereafter, the injected left hind paw of the mice (total 5-8 mice/treatment), were examined both for swelling (Inflammation) and pain (Von Frey). The levels of TNFα in the sera of Sabra mice were determined by Elisa, 24 hrs after HU-436 application.

C57BL = assay: Preliminary toxicological studies in C57BL; type: in vivo, mice
TNF = TNF level in serum of C57BL mice injected with LPS; type: in vivo; details: 30 mg/Kg injected together with LPS; 90 min after injection
Description: Three doses of HU-436 (10 mg/Kg, 20 mg/Kg and 30 mg/Kg) were each injected to three C57BL mice together with LPS. Ninety min fallowing the injections, the mice were bled and the TNF levels in the serum were determined.

Raw 264.7 cells = assay: Reactive oxygen intermediate (ROI) production by Raw 264.7 macrophages (luminol/zymosan chemiluminescence); type: cell-based, mice; details: Mus musculus, RAW264.7, read-out: inhibition of ROI generation
Description: (§3) Raw 264.7 cells, a monocytic-macrophage cell line derived from BALB/c mice, were obtained from American Type Culture collection (Rockville, Md.). The cells were cultured in Dulbecco's modified Eagle medium (DMEM) supplemented with 5% fetal calf serum (FCS) and sodium pyrovate, glutamine, and antibiotics. For activation, the cells were incubated with LPS (E. coli 1 μg/mL for 24 h, Sigma, Israel). These cells were applied for ROI and Nitric Oxide (NO) generation in-vitro.
Raw 264.7 cells were removed using a scrapper, washed, and re-suspended in Hanks balanced salt solution (without phenol red). For measurement of chemiluminescence, two luminometer tubes were each loaded with: 0.5 mL of cell suspension (5×10^5 cells), HU-436 (two separate doses in each tube of 40 μg/ml and 60 μg/ml), 10 μL luminol (Sigma) and 30 μL of zymosan (Sigma). The chemiluminescence in each tube was measured immediately thereafter by a luminometer (Biolumate LB 95, Berhold, Wilbad, Germany)

RAW 264.7 macrophages = assay: Nitric oxide (NO) production by LPS-activated RAW 264.7 macrophages (Griess); type: cell-based, mice; details: Mus musculus, RAW264.7; 60 μg/ml; LPS 1 μg/mL, 24 h
Description: as §3
RAW 264.7 macrophages were treated with various doses (1-60 μg/ml) of HU-436 followed the addition of 1 μg/mL of lipopolysaccharide (LPS, E. coli, Sigma) for activation. The macrophages were then cultivated in a humid atmosphere with 5% CO2 for 24 h. NO generation was determined by measuring the nitrite accumulated in the supernatants (100 μL) of the HU-436-treated macrophages as follows: An equal volume (100 μL) of Griess reagent (1% sulfanilamide, 0.1% naphthalene diamine HCl, 2% H3PO4) was added to each supernatant. Following 10 min of incubation at room temperature, the color production was measured at 550 nm with an ELISA reader. The concentration of nitrite was calculated according to a standard curve. The results are presented in FIG. 1 wherein inhibition of more than 50% was found fallowing incubation of the cells with 60 μg/ml HU-436.

[2] = Weight loss Study 1: body weight of DBA/1 male mice injected Type II collagen for CIA; type: in vivo; details: 5 mg/Kg intra-peritoneal for 16 days from day 18; 34 days
Description: DBA/1 male mice (6 weeks old, 20 gram, 15 mice/group) were injected Type II collagen for CIA. On day 18, the mice were injected (intra-peritoneal) with the following doses, for 16 days:
Vehicle: ethanol: chremophor: saline (1:1:18)
Methrotrexate (MTX): 0.5 mg/Kg.
In addition, a control group (wherein no dose was given) was monitored for comparison. The changes in body weight (in grams) was measured daily for a period of 34 days from injection. FIG. 4 (days 18-34) and FIG. 5 (overall change from day 1 to 34), show the changes in body weight of mice over a period of 34 days from injection.

[3] = Weight loss Study 2: weight change of normal Sabra mice; type: in vivo; details: 5 mg/Kg intra-peritoneal; 15 and 24 days
Description: Normal Sabra (mice 9-10 weeks old, about 32 gram, 7 mice/group) were injected (intra-peritoneal) with two doses of HU-436 (5 mg/Kg and 10 mg/Kg). The change in weight of mice was measured daily for 15 (FIG. 6) and 24 days (FIG. 7) from injection. In addition, a control group (wherein no dose was given) was monitored for comparison.

Sabra mice [4] = assay: Zymosan-induced hind paw pain, Von Frey monofiber instrument; type: in vivo; details: for pain reduction: 2, 6, 24 h
Description: as §1, §2
Pain, was assayed by employing Von-Frey monofiber instrument. The higher the log value measured, the more force (g) one has to apply to cause pain=higher analgesia is being expressed=less pain.

TNF-α = TNF-α in supernatants of TG macrophages treated with LPS (ELISA); type: cell-based, mice; details: Mus musculus, Macrophage, 40 μg/ml, read-out: inhibition in TNF production
Description: Peritoneal cells were harvested from C57BL/6 female mice 4 days after intra-peritoneal injection of 1.5 mL of 3% thioglycollate medium (Difco). The cells (TG macrophages) were washed with phosphate-buffered saline, re-suspended in Dulbecco's modified Eagle medium (DMEM) supplemented with 5% fetal calf serum (FCS), and plated (1.2×10^5) in 96-microwell flat-bottom plates (Nunc, Roskide, Denmark). Following 2-3 h incubation at 37° C., the non-adherent cells were removed by intensive rinsing. About 95% of the adherent cells were macrophages. These cells were applied for studying TNF production in-vitro.
TNF-α in the supernatants of TG macrophages treated with HU-436 (doses of […]) and LPS was determined by ELISA (R&D) with Ab pairs from Biosource (Camarillo, Calif.). Procedures were carried out following the manufacturer's instructions.

[5] = Weight loss Study 3: weight gain and food consumption of C57BL/6 mice; type: in vivo; details: for food consumption: after 1-3 weeks; for reduction in weight gain compared to the control group: three weeks
Description: C57BL/6 mice (8-9 weeks old, 16 gram, 5 mice/group) were injected (intra-peritoneal) with two doses of HU-436 (5 mg/Kg and 10 mg/Kg). The change in weight of mice was measured weekly for three weeks (FIGS. 8 and 9) from injection. In addition, a control group (wherein no dose was given) was monitored for comparison.

[6] = 5 mg/kg, 10 min after ip, minute 3 in tank
[7] = 5 mg/kg, 10 min after ip, minute 4 in tank
[8] = 5 mg/kg, 10 min after ip, minute 5 in tank
[9] = 5 mg/kg, 10 min after ip, minute 6 in tank

Structure (SMILES): C=C(C)[C@@H]1CCC(C)=C[C@H]1c1c(O)cc(CCCCC)cc1O [CBD, Cannabidiol, reference compound]
- potency in reducing inflammation relative to HU-436 (Sabra mice [1]; all experiments): scientifically more potent than HU-436 in reducing inflammation
- moment/kicking per minute score, Mean (Female sabra mice; 5 mg/kg, 10 min after ip): 65 per minute
- moment/kicking per minute score (Female sabra mice; [6]): 76 per minute
- moment/kicking per minute score (Female sabra mice; [7]): 75 per minute
- moment/kicking per minute score (Female sabra mice; [8]): 48 per minute
- moment/kicking per minute score (Female sabra mice; [9]): 60 per minute
- reduction of TNFα levels in the sera (TNFα): 48-58%

Structure (SMILES): C=C(C)C1CCC(C)=CC1c1c(OC)cc(CCCCC)cc1OC(=O)CCN1CCOCC1 [HU-436, Maleate Salt of 3-methoxy-2-((6R)-3-methyl-6-(prop-l-en-2-yl)cyclohex-2-enyl)-5-pentylphenyl 3-morpholinopropanoate]
- inflammatory response (swelling) compared to controls (Sabra mice [1]; 20 mg/kg ip injection): reduction in inflammatory response (swelling) was observed compared to controls
- inflammation compared to the controls (Sabra mice [1]; 30 mg/kg given orally): reduced inflammation compared to the controls
- inflammation compared to the controls (Sabra mice [1]; 50 mg/kg given orally): reduced inflammation compared to the controls
- anti-inflammation properties (Sabra mice [1]; conclusion): moderate anti-inflammation properties
- toxicity (C57BL; 50 mg/Kg): non-toxic
- toxicity (C57BL; 100 mg/Kg): non-toxic
- inhibition in TNF level in the serum (TNF): 46%
- inhibition at 40 µg/mL (Raw 264.7 cells; 40 μg/ml): 20%
- inhibition at 60 µg/mL (Raw 264.7 cells; 60 μg/ml): 28%
- inhibition at 60 µg/mL (RAW 264.7 macrophages): > 50%
- reduction of body weight (weight gain of control group = 100% gain) [2]: up to 61%
- moment/kicking per minute score, Mean (Female sabra mice; 5 mg/kg, 10 min after ip): 81 per minute
- moment/kicking per minute score (Female sabra mice; [6]): 84 per minute
- moment/kicking per minute score (Female sabra mice; [7]): 96 per minute
- moment/kicking per minute score (Female sabra mice; [8]): 76 per minute
- moment/kicking per minute score (Female sabra mice; [9]): 68 per minute
- moment/kicking per minute score, Mean (Female sabra mice; 5 mg/kg, 90 min after ip): 75 per minute
- moment/kicking per minute score (Female sabra mice; 5 mg/kg, 90 min after ip, minute 3 in tank): 70 per minute
- moment/kicking per minute score (Female sabra mice; 5 mg/kg, 90 min after ip, minute 4 in tank): 85 per minute
- moment/kicking per minute score (Female sabra mice; 5 mg/kg, 90 min after ip, minute 5 in tank): 72 per minute
- moment/kicking per minute score (Female sabra mice; 5 mg/kg, 90 min after ip, minute 6 in tank): 73 per minute
- moment/kicking per minute score, Mean (Female sabra mice; 10 mg/kg, 10 min after ip): 75 per minute
- moment/kicking per minute score (Female sabra mice; 10 mg/kg, 10 min after ip, minute 3 in tank): 80 per minute
- moment/kicking per minute score (Female sabra mice; 10 mg/kg, 10 min after ip, minute 4 in tank): 84 per minute
- moment/kicking per minute score (Female sabra mice; 10 mg/kg, 10 min after ip, minute 5 in tank): 64 per minute
- moment/kicking per minute score (Female sabra mice; 10 mg/kg, 10 min after ip, minute 6 in tank): 72 per minute
- moment/kicking per minute score, Mean (Female sabra mice; 10 mg/kg, 180 min after ip): 77 per minute
- moment/kicking per minute score (Female sabra mice; 10 mg/kg, 180 min after ip, minute 3 in tank): 76 per minute
- moment/kicking per minute score (Female sabra mice; 10 mg/kg, 180 min after ip, minute 4 in tank): 52 per minute
- moment/kicking per minute score (Female sabra mice; 10 mg/kg, 180 min after ip, minute 5 in tank): 90 per minute
- moment/kicking per minute score (Female sabra mice; 10 mg/kg, 180 min after ip, minute 6 in tank): 90 per minute
- moment/kicking per minute score, Mean (Female sabra mice; 10 mg/kg, time after ip not given): 81 per minute and 83 per minute
- moment/kicking per minute score (Female sabra mice; 10 mg/kg, time after ip not given, minute 3 in tank): 79 per minute and 74 per minute
- moment/kicking per minute score (Female sabra mice; 10 mg/kg, time after ip not given, minute 4 in tank): 80 per minute and 64 per minute
- moment/kicking per minute score (Female sabra mice; 10 mg/kg, time after ip not given, minute 5 in tank): 89 per minute and 112 per minute
- moment/kicking per minute score (Female sabra mice; 10 mg/kg, time after ip not given, minute 6 in tank): 76 per minute and 83 per minute
- depressive activity (Female sabra mice; 5 or 10 mg/kg ip): did not cause depressive activity
- changes in weight gain [3]: significantly decreased the changes in weight gain
- pain reduction (Sabra mice [4]; 20 mg/kg given orally): marked pain reduction
- pain reduction (Sabra mice [4]; 30 mg/kg given orally): marked pain reduction
- pain reduction (Sabra mice [4]; 50 mg/kg given orally): marked pain reduction
- pain reduction compared to Tremadol (5 mg/kg intra-peritoneally) (Sabra mice [4]; 50 mg/kg, after 24 hr): more potent after 24 hr than Tremadol
- pain reduction (Sabra mice [4]; 100 mg/kg given orally): marked pain reduction
- pain reduction compared to Aspirin (Sabra mice [4]; HU-436 30 or 50 mg/kg vs Aspirin 50 (and 100) mg/kg, 24 hr): the most potent in reducing pain for 24 hr
- long lasting pain reduction compared to Cannabidiol, Aspirin (Sabra mice [4]; conclusion): more effective than Cannabidiol, Aspirin in reducing long lasting pain
- reduction of TNFα levels in the sera (TNFα): up to 20%
- inhibition at 40 µg/mL (TNF-α): > 60%
- food consumption ([5]; 5 mg/Kg intra-peritoneal): reduction in food consumption
- reduction in weight gain compared to the control group ([5]; 5 mg/Kg intra-peritoneal): about 50%
- food consumption ([5]; 10 mg/Kg intra-peritoneal): reduction in food consumption
- reduction in weight gain compared to the control group ([5]; 10 mg/Kg intra-peritoneal): about 50%
